What is called IC50 is the concentration that gives 50% inhibition.

We go through 23 compounds from patent US9828368B2 (MERCK SHARP & DOHME CORP., priority 2013, dated 2017).

One experiment concerns the target human orexin-2 receptor (Homo sapiens (Human), UniProt O43614). Briefly: FLIPR Ca2+ flux assay, hOX2R. The class given is cell-based. The settings on record: CHO cells expressing human orexin-2 receptor; agonist 70 pM Ala-6,12 orexin-A. As to the method: In a typical experiment the OX1 and OX2 receptor antagonistic activity of the compounds of the present invention was determined in accordance with the following experimental method. For intracellular calcium measurements, Chinese hamster ovary (CHO) cells expressing the rat orexin-1 receptor or the human orexin-2 receptor, are grown in Iscove's modified DMEM containing 2 mM L-glutamine, […], 1% hypoxanthine-thymidine supplement, 100 U/ml penicillin, 100 μg/ml streptomycin and 10% heat-inactivated fetal calf serum (FCS). The cells are seeded at 20,000 cells/well into Becton-Dickinson black 384-well clear bottom sterile plates coated with poly-D-lysine. All reagents were from GIBCO-Invitrogen Corp. The seeded plates are incubated overnight at 37° C. and 5% CO2. Ala-6,12 human orexin-A as the agonist is prepared as a 1 mM stock solution in 1% bovine serum albumin (BSA) and diluted in assay buffer (HBSS containing 20 mM HEPES, 0.1% BSA and 2.5 mM probenecid, pH7.4) for use in the assay at a final concentration of 70 pM. Test compounds are prepared as 10 mM stock solution in DMSO, then diluted in 384-well plates, first in DMSO, then assay buffer. On the day of the assay, cells are washed 3 times with 100 μl assay buffer and then incubated for 60 min (37° C., 5% CO2) in 60 μl assay buffer containing 1 μM Fluo-4AM ester, 0.02% pluronic acid, and 1% BSA. The dye loading solution is then aspirated and cells are washed 3 times with 100 μl assay buffer. 30 μl of that same buffer is left in each well. Within the Fluorescent Imaging Plate Reader (FLIPR, Molecular Devices), test compounds are added to the plate in a volume of 25 μl, incubated for 5 min and finally 25 μl of agonist is added. Fluorescence is measured for each well at 1 second intervals for 5 minutes and the height of each fluorescence peak is compared to the height of the fluorescence peak induced by 70 pM Ala-6,12 orexin-A with buffer in place of antagonist. […] The intrinsic orexin receptor antagonist activity of a compound which may be used in the present invention may be determined by these assays.
Background: A change in cytosolic calcium serves as a functional read-out for many receptors and channels.

Another experiment addresses hOX1R (Homo sapiens, UniProt O43613). Briefly: FLIPR Ca2+ flux assay, hOX1R. The class given is cell-based. The settings on record: CHO cells; agonist 70 pM Ala-6,12 orexin-A; rat orexin-1 receptor; read-out: hOX1R FLIPR IC50.

Bounds are passed on as bounds.

human orexin-2 receptor, sequence (O43614 whole entry): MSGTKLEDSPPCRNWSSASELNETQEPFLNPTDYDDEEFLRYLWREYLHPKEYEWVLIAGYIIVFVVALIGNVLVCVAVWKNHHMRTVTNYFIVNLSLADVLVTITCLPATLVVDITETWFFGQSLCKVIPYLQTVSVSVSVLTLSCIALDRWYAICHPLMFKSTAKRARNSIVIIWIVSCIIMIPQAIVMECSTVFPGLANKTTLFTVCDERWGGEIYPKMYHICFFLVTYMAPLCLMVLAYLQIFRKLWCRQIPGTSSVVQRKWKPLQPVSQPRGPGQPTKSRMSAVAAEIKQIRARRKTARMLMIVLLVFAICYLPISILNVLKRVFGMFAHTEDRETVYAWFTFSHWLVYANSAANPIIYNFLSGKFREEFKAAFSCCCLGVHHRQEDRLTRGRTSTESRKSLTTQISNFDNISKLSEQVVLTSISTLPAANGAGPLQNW

Take `Cc1oc([C@@H]2CC[C@@H](C)N(C(=O)c3ccccc3-n3nccn3)C2)nc1[C@@H](O)C(F)(F)F` [Example 18, (2-(2H-1,2,3-Triazol-2-yl)phenyl)((2R,5R)-2-methyl-5-(5-methyl-4-((R)-2,2,2-trifluoro-1-hydroxyethyl)oxazol-2-yl)piperidin-1-yl)methanone]: the results for the IC50 on human orexin-2 receptor and on hOX1R were 13.9 nM and 420 nM, respectively.
Regarding `Cc1oc([C@@H]2CC[C@@H](C)N(C(=O)c3ccccc3-n3nccn3)C2)nc1[C@H](O)C(F)(F)F` [Example 19, (2-(2H-1,2,3-triazol-2-yl)phenyl)((2R,5R)-2-methyl-5-(5-methyl-4-((S)-2,2,2-trifluoro-1-hydroxyethyl)oxazol-2-yl)piperidin-1-yl)methanone], the IC50 at human orexin-2 receptor was determined as 24 nM; on hOX1R it was 790 nM.
Consider `Cc1oc([C@@H]2CC[C@@H](C)N(C(=O)c3ccccc3C3(C#N)CC3)C2)nc1C(C)(C)O` [Example 20, 1-(2-((2R,5R)-5-(4-(2-Hydroxypropan-2-yl)-5-methyloxazol-2-yl)-2-methylpiperidine-1-carbonyl)phenyl)cyclopropanecarbonitrile], for which the figures for the IC50 on human orexin-2 receptor and at hOX1R were 16.6 nM and 425 nM, respectively.
Regarding `Cc1oc([C@@H]2CC[C@@H](C)N(C(=O)c3ccccc3C3(C#N)CCOCC3)C2)nc1C(C)(C)O` [Example 21], the figures for the IC50 on human orexin-2 receptor and at hOX1R were 500 nM and over 10000 nM, respectively.
With `CCOc1ncccc1C(=O)N1C[C@H](c2nc(C(C)(C)O)c(C)o2)CC[C@H]1C` [Example 22, (2-Ethoxypyridin-3-yl)((2R,5R)-5-(4-(2-hydroxypropan-2-yl)-5-methyloxazol-2-yl)-2-methylpiperidin-1-yl)methanone], the IC50 is 297 nM on human orexin-2 receptor and over 10000 nM at hOX1R.
As to `Cc1oc([C@@H]2CC[C@@H](C)N(C(=O)c3cccc4ccnn34)C2)nc1C(C)(C)O` [Example 23, ((2R,5R)-5-(4-(2-Hydroxypropan-2-yl)-5-methyloxazol-2-y1)-2-methylpiperidin-1-yl)(pyrazolo[1,5-a]pyridin-7-yl)methanone], the IC50 at human orexin-2 receptor was 110 nM; at hOX1R it was over 10000 nM.
As to `Cc1oc([C@@H]2CC[C@@H](C)N(C(=O)c3ccccc3-n3ncnn3)C2)nc1C(C)(C)O` [Example 24, (2-(2H-Tetrazol-2-yl)phenyl)((2R,5R)-5-(4-(2-hydroxypropan-2-yl)-5-methyloxazol-2-yl)-2-methylpiperidin-1-yl)methanone], the IC50 at human orexin-2 receptor was determined as 13.5 nM; at hOX1R, 3840 nM.
With `Cc1oc([C@@H]2CC[C@@H](C)N(C(=O)c3ccsc3-n3nccn3)C2)nc1C(C)(C)O` [Example 25, (2-(2H-1,2,3-Triazol-2-yl)thiophen-3-yl)((2R,5R)-5-(4-(2-hydroxypropan-2-yl)-5-methyloxazol-2-yl)-2-methylpiperidin-1-yl)methanone], the IC50 on human orexin-2 receptor was 10.7 nM; at hOX1R it was 1650 nM.
As to `Cc1oc([C@@H]2CC[C@@H](C)N(C(=O)c3ccsc3-c3ncccn3)C2)nc1C(C)(C)O` [Example 26, ((2R, 5R)-5-(4-(2-Hydroxypropan-2-yl)-5-methyloxazol-2-yl)-2-methylpiperidin-1-yl)(2-(pyrimidin-2-yl)thiophen-3-yl)methanone], the values for the IC50 at human orexin-2 receptor and at hOX1R were 42 nM and 1360 nM, respectively.
For `Cc1oc([C@@H]2CC[C@@H](C)N(C(=O)c3ccccc3OC(F)(F)F)C2)nc1C(C)(C)O` [Example 28, ((2R,5R)-5-(4-(2-Hydroxypropan-2-yl)-5-methyloxazol-2-yl)-2-methylpiperidin-l-yl)(2-(trifluoromethoxy)phenyl)methanone] the same measures were 14.1 nM and 1400 nM.
For `Cc1oc([C@@H]2CC[C@@H](C)N(C(=O)c3ccccc3OC(C)C)C2)nc1C(C)(C)O` [Example 29, ((2R,5R)-5-(4-(2-Hydroxypropan-2-yl)-5-methyloxazol-2-yl)-2-methylpiperidin-1-yl)(2-isopropoxyphenyl)methanone] the same measures were 20.4 nM and 2000 nM.
With `Cc1oc([C@@H]2CC[C@@H](C)N(C(=O)c3nc(Cl)sc3C(C)C)C2)nc1C(C)(C)O` [Example 32, (2-Chloro-5-isopropylthiazol-4-yl)((2R,5R)-5-(4-(2-hydroxypropan-2-yl)-5-methyloxazol-2-yl)-2-methylpiperidin-1-yl)methanone], the IC50 on human orexin-2 receptor was 160 nM; at hOX1R it was over 10000 nM.
With `COC(=O)c1ccccc1C(=O)N1C[C@H](c2nc(C(C)(C)O)c(C)o2)CC[C@H]1C` [Example 33, Methyl 2-((2R,5R)-5-(4-(2-hydroxypropan-2-yl)-5-methyloxazol-2-yl)-2-methylpiperidine-1-carbonyl)benzoate], the IC50 at human orexin-2 receptor worked out at 23 nM; on hOX1R, 9980 nM.
Regarding `Cc1oc([C@@H]2CC[C@@H](C)N(C(=O)c3ccccc3-c3ncccn3)C2)nc1C(C)(C)O` [Example 34, ((2R,5R)-5-(4-(2-Hydroxypropan-2-yl)-5-methyloxazol-2-yl)-2-methylpiperidin-1-yl)(2-(pyrimidin-2-yl)phenyl)methanone], the IC50 on human orexin-2 receptor worked out at 56 nM; at hOX1R it was 2200 nM.
With `Cc1oc([C@@H]2CC[C@@H](C)N(C(=O)c3ccc(F)cc3-n3nccn3)C2)nc1C(C)(C)O` [Example 37], the values for the IC50 on human orexin-2 receptor and on hOX1R were 19.1 nM and 1350 nM, respectively.
As to `Cc1oc([C@@H]2CC[C@@H](C)N(C(=O)c3cccnc3OCC(F)F)C2)nc1C(C)(C)O` [Example 38, (2-(2,2-Difluoroethoxy)pyridin-3-yl)((2R,5R)-5-(4-(2-hydroxypropan-2-yl)-5-methyloxazol-2-yl)-2-methylpiperidin-1-yl)methanone], the IC50 is 14.1 nM on human orexin-2 receptor and about 6400 nM on hOX1R.
Regarding `Cc1oc([C@@H]2CC[C@@H](C)N(C(=O)c3cccnc3OCC(F)(F)F)C2)nc1C(C)(C)O` [Example 39, ((2R,5R)-5-(4-(2-Hydroxypropan-2-yl)-5-methyloxazol-2-y1)-2-methylpiperidin-1-yl)(2-(2,2,2-trifluoroethoxy)pyridin-3-yl)methanone], the IC50 was 17.5 nM on human orexin-2 receptor and 2130 nM on hOX1R.
For `Cc1oc([C@@H]2CC[C@@H](C)N(C(=O)c3cccnc3OC(C)C)C2)nc1C(C)(C)O` [Example 40, ((2R,5R)-5-(4-(2-Hydroxypropan-2-yl)-5-methyloxazol-2-yl)-2-methylpiperidin-1-yl)(2-isopropoxypyridin-3-yl)methanone], the figures for the IC50 at human orexin-2 receptor and at hOX1R were 29.5 nM and over 10000 nM, respectively.
In the case of `COCCc1ccccc1C(=O)N1C[C@H](c2nc(C(C)(C)O)c(C)o2)CC[C@H]1C` [Example 41, ((2R,5R)-5-(4-(2-Hydroxypropan-2-yl)-5-methyloxazol-2-yl)-2-methylpiperidin-1-yl)(2-(2-methoxyethyl)phenyl)methanone], the 50% inhibitory concentration (IC50) at human orexin-2 receptor is 57 nM; at hOX1R it was over 10000 nM.
The corresponding values for `Cc1oc([C@@H]2CC[C@@H](C)N(C(=O)c3cnsc3-n3nccn3)C2)nc1C(C)(C)O` [Example 42, (5-(2H-1,2,3-Triazol-2-yl)isothiazol-4-yl)((2R,5R)-5-(4-(2-hydroxypropan-2-yl)-5-methyloxazol-2-yl)-2-methylpiperidin-1-yl)methanone] are 114 nM and over 10000 nM.
Regarding `Cc1cc(C(=O)N2C[C@H](c3nc(C(C)(C)O)c(C)o3)CC[C@H]2C)c(-n2nccn2)s1` [Example 43, ((2R,5R)-5-(4-(2-Hydroxypropan-2-yl)-5-methyloxazol-2-yl)-2-methylpiperidin-1-yl)(5-methyl-2-(2H-1,2,3-triazol-2-yl)thiophen-3-yl)methanone], the values for the IC50 at human orexin-2 receptor and on hOX1R were 30 nM and 1190 nM, respectively.
Take `CC[C@@](C)(O)c1nc([C@@H]2CC[C@@H](C)N(C(=O)c3ccccc3-n3nccn3)C2)oc1C` [Example 44, (2-(2H-1,2,3-Triazol-2-yl)phenyl)((2R,5R)-5-(4-((R)-2-hydroxybutan-2-yl)-5-methyloxazol-2-yl)-2-methylpiperidin-1-yl)methanone]: the IC50 is 31 nM at human orexin-2 receptor and 790 nM at hOX1R.
`CC[C@](C)(O)c1nc([C@@H]2CC[C@@H](C)N(C(=O)c3ccccc3-n3nccn3)C2)oc1C` [Example 45, (2-(2H-1,2,3-triazol-2-yl)phenyl)((2R,5R)-5-(4-((S)-2-hydroxybutan-2-yl)-5-methyloxazol-2-yl)-2-methylpiperidin-1-yl)methanone]: the results for the IC50 on human orexin-2 receptor and at hOX1R were 24 nM and 1220 nM, respectively.
